Experimental data taken from PubChem BioAssay AID493010 (Sanford-Burnham Center for Chemical Genomics, 2011).

System: 1x PBS pH 7.4 stability, LC/MS/MS, 48 h RT
Assay: chemical stability in phosphate buffer, ADME assay, biochemical, 1x PBS, pH 7.4 (AID 493010)
Conditions: stronger effect = lower value

| Compound | percent remaining [%] |
| --- | --- |
| CC(C)(C)c1ccc(C(=O)Nc2cc(Cl)c(Br)cc2C(=O)O)cc1 | 108 |
| COc1ccc(C2CC(c3ccccc3)=NN2c2ccc(S(N)(=O)=O)cc2)cc1 (centres undefined) | 27 |
| CC(C)(C)c1ccc(C(=O)Nc2cc(Cl)c(Cl)cc2C(=O)O)cc1 | 124 |
| COc1cccc(C2=NN(c3ccc(S(N)(=O)=O)cc3)C(c3ccc(Br)cc3)C2)c1 (centres undefined) | 10.6 |
